Source: patent US20260166127A1, “USE OF ANALOG OF C-TYPE NATRIURETIC PEPTIDE FOR THE TREATMENT OF FGFR-RELATED BONE REPAIR AND BONE FORMATION IMPAIRMENT” (INSTITUT NATIONAL DE LA SANTÉ ET DE LA RECHERCHE MÉDICALE, priority 2021, published 2026)

Columns and labels:
[1] = system: HCH mouse model (Fgfr3^N534K/+), mandible bone repair; assay: Non-stabilized mandibular fracture repair in HCH mice treated with BMN111 (microCT, repair grade); type: in vivo
Protocol: Mandibular bone repair was studied in the HCH mouse model (Fgfr3^N534K/+). The experiments were performed in adult animals at 6 weeks of age, and mice were euthanized at 4 key points: during bone repair (10, 14, 21 days post fracture), and at the end of the normal bone healing process i.e. at 28 days post fracture.
Vertical mandibular fractures were performed in the ascending ramus region in Fgfr3^N534K/+ and Fgfr3^+/+ mice. This is a non-stabilized mandibular fracture protocol allowing to analyze the endochondral bone repair process.
Four batches (n=100) of Fgfr3^N534K/+ and Fgfr3^+/+ mandible fractures corresponding to different key stages of repair were studied (day 10, day 14, day 21, day 28). Using collagen type II (proliferative cartilage), type X (hypertrophic cartilage) and type I (bone) immunolabelling, we observed that the endochondral process is disturbed, we noted a delayed cartilage resorption, a reduction in the size of hypertrophic chondrocytes area and a defect in bone formation within the repair callus in Fgfr3^N534K/+ compared to Fgfr3^+/+. […] We observed the presence of pseudarthrosis (fibrosis in the callus) in Fgfr3^N534K/+ mice whereas we observed 100% of bone in Fgfr3^+/+ callus. Considering the quality of the newly formed bone at day 28, we defined four grades of repair and classified the mice according to their repair grade (from 1 to 4). The defective repair is significant in Fgfr3^N534K/+ compared to Fgfr3^+/+ (FIG. 1C).
In order to analyze the bone microarchitecture, we performed microCT scans. We observed an alteration in the microarchitecture of callus formation from day10 to day 28 Fgfr3^N534K/+ compared to Fgfr3^+/+.
HCH mice (Fgfr3^N534K/+) were treated with BMN111 (subcutaneous injection at 0.8 mg/kg, 3 times per week) from day 0 (facture of the mandible) to day 14 or day 28. The bone repair analyses were evaluated by microCT scans at day 14 and day 28 post fracture. […] BV/TV is increased at day 14 (+29%; p<0.005) in treated HCH mice (n=8) compared to untreated HCH mice (n=9). BV/TV is increased at day 28 post fracture and (+24% p<0.005) in the HCH mice (n=9) compared to the untreated HCH mice (n=14) (FIGS. 1A and 1B).

[2] = system: mouse model (Fgfr3^Y367C/+); conditions: human ACH cells and Fgfr3^Y367C/+ mouse model; Lorget et al 2012; cited from earlier work
[3] = day 28 grade repair, treated HCH mice
[4] = microCT, day 28 post fracture, treated (n=9) vs untreated (n=14) HCH mice, BMN111 s.c. 0.8 mg/kg 3 times per week, p<0.005

Substance: Vosoritide (PGQEHPNARKYKGANKKGLSKGCFGLKLDRIGSMSGLGC; chains of the INN, looked up) [BMN111, CNP analog, NPR2 agonist; formula C176H290N56O51S3, CAS Number 1480724-61-5]
- Complete bone healing (grade 1), mice observed [1, 3]: 7/9
- Restoration of bone continuity, but presence of mild bone defects (grade 2), mice observed [1, 3]: 2/9
- BV/TV increase ([1]; microCT, day 14 post fracture, treated (n=8) vs untreated (n=9) HCH mice, BMN111 s.c. 0.8 mg/kg 3 times per week, p<0.005): +29%
- callus volume ([1]; microCT, day 14 post fracture, treated vs untreated HCH mice, BMN111 s.c. 0.8 mg/kg 3 times per week): unchanged
- BV/TV increase [1, 4]: +24%
- decrease of the volume of the callus [1, 4]: −30.9%
- pseudarthrosis in the callus ([1]; treated HCH mice, mandible fracture callus): without pseudarthrosis
- effect on long bone growth and the skull [2]: beneficial effect
